Data taken from patent publication US20240400553A1, “AMINE BASED MATRIPTASE 2 INHIBITORS AND USES THEREOF” (Disc Medicine, Inc., priority 2023, published 2024).

Each compound was assayed against T1, Human Recombinant Matriptase 2 (Homo sapiens, UniProt Q8IU80) (assay: Matriptase 2 inhibition, fluorescence based assay (Method I)). Settings: Table A; Ki of Matriptase-2; read-out: Mat-2 Ki.
T1 construct: made in house
T1 sequence (Q8IU80 1-811): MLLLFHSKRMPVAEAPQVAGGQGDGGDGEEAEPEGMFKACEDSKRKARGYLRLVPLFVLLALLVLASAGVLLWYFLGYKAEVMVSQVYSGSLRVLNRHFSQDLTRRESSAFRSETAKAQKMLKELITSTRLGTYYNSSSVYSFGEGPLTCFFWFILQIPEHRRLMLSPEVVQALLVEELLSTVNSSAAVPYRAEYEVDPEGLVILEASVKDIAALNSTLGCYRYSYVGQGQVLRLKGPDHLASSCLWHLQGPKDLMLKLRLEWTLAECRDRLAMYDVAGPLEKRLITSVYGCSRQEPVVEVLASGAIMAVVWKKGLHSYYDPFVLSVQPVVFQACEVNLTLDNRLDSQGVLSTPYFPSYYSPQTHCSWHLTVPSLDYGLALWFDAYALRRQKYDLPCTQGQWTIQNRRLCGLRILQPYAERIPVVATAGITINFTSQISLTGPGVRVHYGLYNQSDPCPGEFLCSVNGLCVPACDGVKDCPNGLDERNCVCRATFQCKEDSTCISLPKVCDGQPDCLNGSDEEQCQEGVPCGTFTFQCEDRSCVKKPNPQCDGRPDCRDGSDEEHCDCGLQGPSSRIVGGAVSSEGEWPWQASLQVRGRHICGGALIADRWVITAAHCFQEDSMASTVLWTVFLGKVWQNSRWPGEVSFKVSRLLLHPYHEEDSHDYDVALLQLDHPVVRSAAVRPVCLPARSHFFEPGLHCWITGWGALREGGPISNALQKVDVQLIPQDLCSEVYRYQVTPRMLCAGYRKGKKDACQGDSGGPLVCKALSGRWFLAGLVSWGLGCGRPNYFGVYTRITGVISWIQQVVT
Assay type: biochemical
Protocol: • Method I: Test compounds were evaluated for their potential to inhibit Human Recombinant Matriptase 2 (in-house) using fluorescence based assay. The concentration of Recombinant Matriptase 2 and the substrate used in the assay was: 3.5 nM (In-house Matriptase 2) and 62 μM (Boc-Gln-Ala-Arg-7-amido-4-methyl coumarin hydrobromide −Cat log: I-1550 from Bachem) respectively. The assay buffer used was 50 mM TRIS pH 7.5, 150 mM NaCl, 0.01% Gelatin TCL059 Himedia). The assay was performed using 384 well black flat bottom plate from grenier (Cat log: 781076) at 25° C. The enzyme and compound were preincubated for 30 mins, the plate was read at 60 mins after substrate addition at wavelength Ex: 360/Em: 480 nm. The final assay volume was 20 μl. A stock solution of compounds was initially prepared in DMSO and appropriate dilutions were made and IC50 was determined for all the compounds (final DMSO conc in the assay was 1%). All the measurements were carried out using the Spectramax M5, Molecular devices.
To determine Ki values, dose response curves were generated by plotting percentage inhibition as a function of inhibitor concentration and the data was fitted to sigmoidal non-linear regression equation (variable slope) using Graph Pad prism software V8.
`CCOC(=O)c1cc2ccc(CN)nc2n1Cc1cc(NS(=O)(=O)[C@@H](C)c2ccccc2)cc2ccccc12` (racemic) [Compound 119, ethyl 6-(aminomethyl)-1-{[3-(1-phenylethanesul-fonamido)naphthalen-1-yl]methyl}-1H-pyrrolo-[2,3-b]pyridine-2-car-boxylate] was tested, and the Ki was 500 to 3000 nM. With `C[C@H](OC(=O)c1ccccc1)OC(=O)c1cc2ccc(CN)nc2n1Cc1cc(NS(=O)(=O)Cc2ccccc2)cc2ccccc12` (racemic) [Compound 124, 1-[6-(aminomethyl)-1-{[3-(phenylmethanesul-fonamido)naphthalen-1-yl]methyl}-1H-pyrrolo-[2,3-b]pyridine-2-car-bonyloxy]ethyl benzoate] the Ki was 500 to 3000 nM. `COCCN1CC[C@H](COC(=O)c2cc3ccc(CN)nc3n2Cc2cc(NS(=O)(=O)Cc3ccccc3)cc3ccccc23)C1` (racemic) [Compound 138, rac-[(3R)-1-(2-methoxy-ethyl)pyrrolidin-3-yl]-methyl 6-(aminometh-yl)-1-{[3-(phenylmeth-anesulfonamido)naph-thalen-1-yl]methyl}-1H-pyrrolo[2,3-b]pyridine-2-carboxylate] was tested, and the Ki was ≤ 100 nM. In the case of `C[C@@H](CCOC(=O)c1cc2ccc(CN)nc2n1Cc1cc(NS(=O)(=O)Cc2ccccc2)cc2ccccc12)N1CCOCC1` (racemic) [Compound 143, rac-(3R)-3-(morpholin-4-yl)butyl 6-(aminometh-yl)-1-{[3-(phenylmeth-anesulfonamido)naph-thalen-1-yl]methyl}-1H-pyrrolo-[2,3-b]pyridine-2-carboxylate], the Ki is reported as ≤ 100 nM. For `COCCN1CCC[C@H](COC(=O)c2cc3ccc(CN)nc3n2Cc2cc(NS(=O)(=O)Cc3ccccc3)cc3ccccc23)C1` (racemic) [Compound 144, rac-[(3R)-1-(2-methoxy-ethyl)piperidin-3-yl]-methyl 6-(aminometh-yl)-1-(phenylmethane-sulfonamido)naphthalen-1-yl]methyl}-1H-pyrrolo-[2,3-b]pyridine-2-car-boxylate], the Ki was ≤ 100 nM. For `C[C@H](COC(=O)c1cc2ccc(CN)nc2n1Cc1cc(NS(=O)(=O)Cc2ccccc2)cc2ccccc12)CN1CCOCC1` (racemic) [Compound 145, rac-(2R)-2-methyl-3-(morpholin-4-yl)propyl 6-(aminomethyl)-1-{[3-(phenylmethanesulfon-amido)naphthalen-1-yl]-methyl}-1H-pyrrolo[2,3-b]pyridine-2-carboxylate], the Ki was ≤ 100 nM. `COCCN1CCC[C@H](COC(=O)c2cc3ccc(CN)nc3n2Cc2cc(NS(=O)(=O)Cc3ccsc3)cc3ccccc23)C1` (racemic) [Compound 166, [1-(2-methoxyethyl)-piperidin-3-yl]methyl 6-(aminomethyl)-1-({3-[(thiophen-3-yl)methane-sulfonamido]naphthalen-1-yl}methyl)-1H-pyr-rolo[2,3-b]pyridine-2-carboxylate] was tested, and the Ki was ≤ 100 nM. `COCCN1CC[C@H](COC(=O)c2cc3ccc(CN)nc3n2Cc2cc(NS(=O)(=O)Cc3ccsc3)cc3ccccc23)C1` (racemic) [Compound 172, [1-(2-methoxyethyl)-pyrrolidin-3-yl]methyl 6-(aminomethyl)-1-({3-[(thiophen-3-yl)methane-sulfonamido]naphthalen-1-yl}methyl)-1H-pyr-rolo[2,3-b]pyridine-2-carboxylate] was tested, and the Ki was ≤ 100 nM. For `COCCN1CCCC(COC(=O)c2cc3ccc(CN)nc3n2Cc2cc(NS(=O)(=O)Cc3c(C)cccc3C)cc3ccccc23)C1` (racemic) [Compound 193, [1-(2-methoxyethyl)-piperidin-3-yl]methyl 6-(aminomethyl)-1-({3-[(2,6-dimethylphenyl)-methanesulfonamido]-naphthalen-1-yl}meth-yl)-1H-pyrrolo[2,3-b]-pyridine-2-carboxylate], the Ki was ≤ 100 nM. For `COCCN1CC[C@H](COC(=O)c2cc3ccc(CN)nc3n2Cc2cc(NS(=O)(=O)Cc3c(C)cccc3C)cc3ccccc23)C1` (racemic) [Compound 194, [1-(2-methoxyethyl)pyr-rolidin-3-yl]methyl 6-(aminomethyl)-1-({3-[(2,6-dimethylphenyl)-methanesulfonamido]-naphthalen-1-yl}meth-yl)-1H-pyrrolo[2,3-b]-pyridine-2-carboxylate], the Ki was ≤ 100 nM.

Same assay, conditions: Table A; Ki of Matriptase-2 given as class symbols; read-out: Mat-2 Ki
In the case of `NCc1ccc2cc(C(=O)O)n(Cc3cc(NS(=O)(=O)CC4CNCCO4)cc4ccccc34)c2n1` (racemic) [Compound 224, 6-(aminomethyl)-1-({3-[(morpholin-2-yl)-methanesulfonamido]-naphthalen-1-yl}meth-yl)-1H-pyrrolo[2,3-b]-pyridine-2-carboxylic acid], the Ki is reported as 100 to 500 nM. For `C[C@@H](C(=O)N(C)C)S(=O)(=O)Nc1cc(Cn2c(C(=O)O)cc3ccc(CN)nc32)c2ccccc2c1` (racemic) [Compound 255, rac-6-(aminomethyl)-1-({3-(dimethylcarbam-oyl)ethanesulfonamido]-naphthalen-1-yl}methyl)-1H-pyrrolo[2,3-b]pyr-idine-2-carboxylic acid], the Ki was ≤ 100 nM. For `NCc1ccc2cc(C(=O)O)n(Cc3cc(NS(=O)(=O)C[C@H]4CCCO4)cc4ccccc34)c2n1` (racemic) [Compound 257, rac-6-(aminomethyl)-1-[(3-{[(2R)-oxolan-2-yl]methanesulfonamido}-naphthalen-1-yl)methyl]-1H-pyrrolo[2,3-b]pyr-idine-2-carboxylic acid], the Ki was 100 to 500 nM. `NCc1ccc2cc(C(=O)O)n(Cc3cc(NS(=O)(=O)C[C@H]4COCCN4)cc4ccccc34)c2n1` (racemic) [Compound 261, 6-(aminomethyl)-1-({3-[(morpholin-3-l)methane-sulfonamido]naphthalen-1-yl}methyl)-1H-pyr-rolo[2,3-b]pyridine-2-carboxylic acid] was tested, and the Ki was 100 to 500 nM. For `NCc1ccc2cc(C(=O)O)n(Cc3cc(NS(=O)(=O)C[C@H]4CCOC4)cc4ccccc34)c2n1` (racemic) [Compound 262, rac-6-(aminomethyl)-1-[(3-{[(3R)-oxolan-3-yl]-methanesulfonamido}-naphthalen-1-yl)methyl]-1H-pyrrolo[2,3-b]pyr-idine-2-carboxylic acid], the Ki was 100 to 500 nM. For `CC(=O)O[C@H](C)OC(=O)c1cc2ccc(CN)nc2n1Cc1cc(NS(=O)(=O)CC2CCNCC2)cc2ccccc12` (racemic) [Compound 263, 1-[6-(aminomethyl)-1-({3-[(piperidin-4-yl)-methanesulfonamido]-naphthlen-1-yl}methyl)-1H-pyrrolo[2,3-b]pyr-idine-2-carbonyloxy]-ethyl acetate], the Ki was 100 to 500 nM. With `NCc1ccc2cc(C(=O)O)n(Cc3cc(NS(=O)(=O)[C@H]4CCOC4)cc4ccccc34)c2n1` (racemic) [Compound 273, rac-6-(aminomethyl)-1-({3-[(3R)-oxolane-3-sulfonamido]naphthalen-1-yl}methyl)-1H-pyr-rolo[2,3-b]pyridine-2-carboxylic acid] the Ki was 500 to 3000 nM. `CC(C)(C)OC(=O)N1CCOC[C@@H]1CS(=O)(=O)Nc1cc(Cn2c(C(=O)O)cc3ccc(CN)nc32)c2ccccc2c1` (racemic) [Compound 277, 6-(aminomethyl)-1-{[3-({4-[(tert-butoxy)car-bonyl]morpholin-3-yl}-methanesulfonamido)-naphthalen-1-yl]methyl}-1H-pyrrolo[2,3-b]pyr-idine-2-carboxylic acid] was tested, and the Ki was 500 to 3000 nM. `CCN1C[C@@H](S(=O)(=O)Nc2cc(Cn3c(C(=O)O)cc4ccc(CN)nc43)c3ccccc3c2)CC1=O` (racemic) [Compound 282, rac-6-(aminomethyl)-1-({3-[(3R)-1-ethyl-5-oxopyrrolidine-3-sulfon-amido]naphthalen-1-yl}-methyl)-1H-pyrrolo[2,3-b]pyridine-2-carboxylic acid] was tested, and the Ki was 500 to 3000 nM. `C[C@H]1CCC(C)(C)N1C(=O)Nc1cc(Cn2c(C(=O)O)cc3ccc(CN)nc32)c2ccccc2c1` (racemic) [Compound 302, rac-6-(aminomethyl)-1-[(3-{[(SR)-2,2,5-trimeth-ylpyrrolidine-1-carbon-yl]amino}naphthalen-1-yl)methyl]-1H-pyrrolo-[2,3-b]pyridine-2-carbox-ylic acid] gave a Ki of 500 to 3000 nM.
